Reference: PubChem BioAssay (NCI)
Values joined by “and” are separate entries in the source; they are usually repeats but may differ in a detail not shown here. Equal values may be shown once.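 Five compound concentrations were applied to cells in 96-well plates for 48 hours; endpoints were derived by simple linear interpolation of the resulting dose-response curve. GI50 = concentration required for 50% inhibition of growth. TGI marks complete inhibition of growth.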

How the values were obtained:
Assay in all cases: DTP human tumour cell line panel, 48 h
[1] = system: HS 578T breast
[2] = system: MCF7 breast
[3] = system: IGROV1 ovarian
[4] = system: UACC-257 melanoma
[5] = system: U251 CNS
[6] = system: PC-3 prostate
[7] = system: SR leukemia
[8] = system: SNB-19 CNS
[9] = system: LOX IMVI melanoma
[10] = system: DU-145 prostate

SMILES	GI50 [1]	TGI [1] [µM]	GI50 [2]	TGI [2] [µM]	GI50 [3]	TGI [3] [µM]	GI50 [4]	TGI [4] [µM]	GI50 [5]	TGI [5] [µM]	GI50 [6]	TGI [6] [µM]	GI50 [7]	TGI [7] [µM]	GI50 [8]	TGI [8] [µM]	GI50 [9]	TGI [9]	GI50 [10]	TGI [10] [µM]
CNC(=O)Nc1ccc(-c2nc(N3CCOCC3)nc3c2cnn3C2CCOCC2)cc1	0.0503 µM	0.303	0.0784 µM	> 100	0.0794 µM	0.493	0.184 µM	1.4	0.258 µM	> 38.6	0.0809 µM	7.49	0.239 µM	> 19.8	0.396 µM	> 100	0.161 µM	> 100 µM	0.288 µM	> 100
CC1(C)CCC(C)(C)c2cc(C(=O)Nc3ccc(C(=O)O)cc3)ccc21		> 46.8		> 100		63.7		> 67.7		> 100		51.7		> 81.9		> 66.4		> 58.2 µM		> 73.6
COC1/C=C/OC2(C)Oc3c(C)c(O)c4c(c3C2=O)C(=O)C=C(NC(=O)/C(C)=C\C=C\C(C)C(OC=O)C(C)C(O)C(C)C(OC(C)=O)C1C)C4=O (stereo not drawn)		44.9		7.29		34.7		26.5		38.2		25.1		8.08		27.4		14.1 µM		33
COc1cc(-c2oc3ccccc3c(=O)c2O)cc(OC)c1OC		98.9		> 100		> 100		> 100		> 100		> 100		> 24.8		> 100		> 100 µM		> 100
Nc1cc(N)c2nc(-c3ccccc3)c(Oc3ccc(F)cc3)nc2c1	19.8 µM	53.7	20.3 µM	> 100	28.5 µM	> 100	23.2 µM	42.6	23.2 µM	78.6	7.27 µM	46.3	8.15 µM	> 100	17.3 µM	33.8	43.3 µM	> 100 µM	17.2 µM	36.8
COc1ccc(Cl)cc1Nc1nc(C(F)(F)F)ccc1C(=O)NN	12.3 µM	> 100	18.7 µM	> 100	7.83 µM	> 85.1	3.87 µM	> 30.2	2.43 µM	> 100	2.84 µM	> 100	0.404 µM	3.56	8.93 µM	> 100	2.57 µM	> 65.4 µM	2.42 µM	> 20.2
NS(=O)(=O)c1ccc(N2Cc3cc(Cl)ccc3OC3=C2C(=O)N(CC2CCCCC2)C3=O)cc1	2.01 µM	6.88	0.364 µM	1.9	1.34 µM	2.83	1.54 µM	3	1.3 µM	2.65	0.519 µM	2.09	0.284 µM	0.839	1.6 µM	3.44	1.01 µM	2.32 µM	1.06 µM	2.25
COc1ccc(-c2cc(-c3ccc(Cl)cc3)c(C#N)c(=O)n2CCCCC(=O)Nc2ccccc2N)cc1	8.18 µM	52.4	4.03 µM	> 100	4.9 µM	> 100	4.48 µM	> 100	7.97 µM	> 100	6.18 µM	95.9	1.09 µM	> 100	22.2 µM	> 100	1.16 µM	2.92 µM	16.3 µM	> 100
Cc1cc2c(cc1C)NC1=C(N2)OC(c2c[nH]c3ccc(COc4ccccc4)cc23)C1=O (stereo not drawn)		> 100		> 100		> 100		> 100		> 100		> 100		> 100		> 100		> 100 µM		> 100
COc1cc(-c2csc(NC(=O)c3cc(C(F)(F)F)cc(C(F)(F)F)c3)n2)cc(OC)c1OC	3.14 µM	> 100	2.16 µM	> 100	4.37 µM	> 100			2.7 µM	> 100	1.73 µM	7.35	2.67 µM	11.6	3.89 µM	> 100	2.92 µM	> 100 µM	3.62 µM	> 100
N/C(=N\OC(=O)c1ccccc1)C(C(=O)NOC(=O)c1ccccc1)C1CCCCC1 (stereo not drawn)	2.57 µM	7.93	8.22 µM	23	1.66 µM	3.92	13.7 µM	28.7	1.78 µM	3.87	6.33 µM	20.5	1.99 µM	4.99	15.4 µM	39.1	0.343 µM	1.38 µM	2.76 µM	10.3
Cc1cccc(NC(=O)c2sc3nc4c(cc3c2N)CCCC4)c1C	0.351 µM	> 100	0.339 µM	> 100	0.547 µM	> 100	> 100 µM	> 100	0.416 µM	> 100	0.468 µM	> 100	0.276 µM	> 100	0.508 µM	> 100	0.598 µM	> 100 µM	0.454 µM	> 100
COc1ccc(C2SC(N)=Nc3c2c(C)nn3C(=O)c2ccc(Cl)cc2)cc1OC (stereo not drawn)		> 10		> 10		> 10		> 10		> 10		> 10		> 10		> 10		> 10 µM		> 10
CC(C)n1c(/C=C/[C@@H](O)C[C@@H](O)CC(=O)O)c(-c2ccc(F)cc2)c2ccccc21	4.29 µM and 4.73 µM	> 100	20.7 µM and 16.6 µM	> 100	2.99 µM and 2.68 µM	> 100	52.7 µM and 47.5 µM	> 100	0.455 µM and 0.558 µM	> 100	0.371 µM and 0.65 µM	> 100	2.16 µM and 2.8 µM	> 61.7	4.23 µM and 1.32 µM	> 100	0.465 µM and 0.653 µM	> 40.1 µM and 5.62 µM	24.8 µM and 26.4 µM	> 100
